Laboratory results as given in ChEMBL document CHEMBL3774380, “Development of Noviomimetics as C-Terminal Hsp90 Inhibitors” (ACS Med Chem Lett, 2016).
Active and inactive are the calls of the source. The calls are words filed in the database; no cut-off is given here.

species: Rattus norvegicus; test: Inhibition of Hsp90 in rat 50B11 cells assessed as increase in Hsp70 level at 0.5 to 1000 nM after 24 hrs by Western blot method; assay type: cell-based

Row | Compound | inhibition
1 | CC(=O)NCCc1ccc(OC2CCC(OCc3ccccc3)CC2)cc1-c1cccc(F)c1 (mixture of isomers) | Active
2 | CO[C@@H]1[C@@H](O)[C@@H](O)[C@H](Oc2ccc(CCNC(C)=O)c(-c3cccc(F)c3)c2)OC1(C)C | Active

species: Rattus norvegicus; test: Inhibition of Hsp90 in rat 50B11 cells expressing human HSPA1A gene assessed as increase in Hsp70 level at 10 to 1000 nM after 16 hrs by luciferase reporter assay; assay type: cell-based

Row | Compound | inhibition
3 | CC(=O)NCCc1ccc(OC2CCC(OCc3ccccc3)CC2)cc1-c1cccc(F)c1 (mixture of isomers) | Active
4 | CC(=O)NCCc1ccc(OC2C[C@H](O)CO2)cc1-c1cccc(F)c1 (mixture of isomers) | inactive
5 | CC(=O)NCCc1ccc(OC2CCCC(O)C2)cc1-c1cccc(F)c1 (mixture of isomers) | Active
6 | CC(=O)NCCc1ccc(OC2OC[C@@H](O)[C@H]2O)cc1-c1cccc(F)c1 (mixture of isomers) | inactive
7 | CC(=O)NCCc1ccc(OC2OCCC2O)cc1-c1cccc(F)c1 (mixture of isomers) | inactive
8 | CC(=O)NCCc1ccc(OC2CCC(O)CC2)cc1-c1cccc(F)c1 (mixture of isomers) | Active
9 | CC(=O)NCCc1ccc(OC2C=CCCC2)cc1-c1cccc(F)c1 (racemic) | inactive
10 | CC(=O)NCCc1ccc(OC2CCCC(OCc3ccccc3)C2)cc1-c1cccc(F)c1 (mixture of isomers) | Active
11 | CC(=O)NCCc1ccc(O[C@H]2CC[C@@H](OCc3ccccc3)C2)cc1-c1cccc(F)c1 | inactive
12 | CC(=O)NCCc1ccc(OC2C=CCC(C)(C)C2)cc1-c1cccc(F)c1 (racemic) | inactive
13 | CC(=O)NCCc1ccc(O[C@@H]2CC[C@@H](OCc3ccccc3)C2)cc1-c1cccc(F)c1 | inactive
